Data as given in ChEMBL document CHEMBL1156847, “Structure-based design of a thiazolidinedione which targets the mitochondrial protein mitoNEET” (Bioorg Med Chem Lett, 2010).

Assays:
[1] = Inhibition of respiration in Sprague-Dawley rat mitochondria assessed as reduction in respiratory control rate; format: functional
Rattus norvegicus = species: Rattus norvegicus; assay: Reduction in state 3 respiration in Sprague-Dawley rat mitochondria; format: functional; design: scale not given: the % may be the effect or the level left
[2] = target: T1, CDGSH iron-sulfur domain-containing protein 1 (Rattus norvegicus, UniProt B0K020); assay: Displacement of [3H]rosiglitazone from rat liver mitochondrial mitoNEET by scintillation counting
T1 sequence (B0K020 whole entry): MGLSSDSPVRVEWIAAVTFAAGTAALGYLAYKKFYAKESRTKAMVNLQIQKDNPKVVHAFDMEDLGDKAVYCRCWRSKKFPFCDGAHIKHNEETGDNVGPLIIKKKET

SH-SY5Y [3] = assay: Neuroprotective activity against rotenone-induced cell death in human SH-SY5Y assessed as reduction in LDH release pretreated 1 hrs before rotenone challenge measured after 24 hrs; format: functional, cell-based
SH-SY5Y [4] = assay: Neuroprotective activity against rotenone-induced cell death in human SH-SY5Y assessed as reduction in LDH release pretreated 1 hrs before rotenone challenge measured after 24 hrs relative to control; format: functional; design: scale not given: the % may be the effect or the level left

| IC50 [2] [µM] | Compound | IC50 [1] [µM] | Activity (Rattus norvegicus) [%] | Activity (SH-SY5Y [3]) | Activity (SH-SY5Y [4]) [%] |
| --- | --- | --- | --- | --- | --- |
| 1.1 | CN(CCOc1ccc(CC2SC(=O)NC2=O)cc1)c1ccccn1 (configuration not stated) [ROSIGLITAZONE] |  |  |  |  |
| 1 | CCc1ccc(CCOc2ccc(CC3SC(=O)NC3=O)cc2)nc1 (configuration not stated) [PIOGLITAZONE] |  |  |  |  |

| Compound | IC50 [2] [µM] | IC50 [1] [µM] | Activity (Rattus norvegicus) [%] | Activity (SH-SY5Y [3]) | Activity (SH-SY5Y [4]) [%] |
| --- | --- | --- | --- | --- | --- |
| CC(C)(C)c1cc(CC2SC(=O)N=C2O)cc(C(C)(C)C)c1O (configuration not stated) | 0.9 | 2.4 | 45 | Dose-dependent effect | 40 |
